Measured values reported in paper PMC4057667, “Study on Biopharmaceutics Classification and Oral Bioavailability of a Novel Multikinase Inhibitor NCE for Cancer Therapy” (International Journal of Molecular Sciences, 2014).
Like-named read-outs stand apart in the source and are kept apart here.

Experiment: Pharmacokinetic study in beagle dogs
Format: in vivo
Details: 30 mg/kg; for AUC(0-t) / Cmax / MRT / Tmax / half-life / bioavailability: beagle, dog, plasma
Protocol: Six healthy beagle dogs (7.97 ± 0.73 kg) were randomly assigned into two groups. NCE was given to the dogs by intragastrical (i.g.) and intravenous (i.v.) administration at a dosage of 30 mg/kg. Blood was collected from the forelimb vein of the dogs at 0.25, 0.5, 0.75, 1, 2, 3, 4, 6, 8, 10, 12 and 24 h. Plasma samples were obtained by centrifuging blood at 3000 rpm for 10 min and were stored at −20 °C. Before analysis, acetonitrile was added into the plasma and the mixture was vortexed for 5 min to precipitate the protein. Then, the samples were centrifuged for 10 min at a speed of 1.3 × 10^4 rpm. The supernatant was collected and the solvent was removed by pressure blowing concentrator. Then, mobile phase was added to dissolve the residual. The concentrations of NCE in plasma were determined by HPLC.
The pharmacokinetic parameters were calculated using the pharmacokinetics-intelligent analysis module of DAS 2.1.1 software. Total areas under the concentration-time curve (AUC) after i.g. and i.v. administration were determined by extrapolation from time 0−t (AUC0−t), respectively. The oral bioavailability of NCE was estimated using the ratio of AUC values following i.g. and i.v. administration.

Compound: CNC(=O)c1cc(Oc2ccc(NC(=O)c3cccc(C(F)(F)F)c3)cc2)ccn1.Cc1ccc(S(=O)(=O)O)cc1.O [NCE, 2-methylcarbamoyl-4-{4-[3-(trifluoromethyl)benzamido]phenoxy} pyridinium 4-methylbenzenesulfonate monohydrate]
- i.v./i.g. AUC0−t ratio (beagle dogs): 4.19
- i.v./i.g. Cmax ratio (beagle dogs): about 11.10
- AUC(0-t) (iv, Beagle 1): 56200 ng·h/mL
- Cmax (iv, Beagle 1): 26000 ng/mL
- MRT (iv, Beagle 1): 1.84 h
- Tmax (iv, Beagle 1): 0.23 h
- half-life (iv, Beagle 1): 383 min
- AUC(0-t) (iv, Beagle 2): 34400 ng·h/mL
- Cmax (iv, Beagle 2): 23700 ng/mL
- MRT (iv, Beagle 2): 1.68 h
- Tmax (iv, Beagle 2): 0.3 h
- half-life (iv, Beagle 2): 214 min
- AUC(0-t) (iv, Beagle3): 25100 ng·h/mL
- Cmax (iv, Beagle3): 21600 ng/mL
- MRT (iv, Beagle3): 1.35 h
- Tmax (iv, Beagle3): 0.22 h
- half-life (iv, Beagle3): 554 min
- AUC(0-t) (iv, mean ± SD, n = 3): 38600 ± 16000 ng·h/mL
- Cmax (iv, mean ± SD, n = 3): 23800 ± 2230 ng/mL
- MRT (iv, mean ± SD, n = 3): 1.62 ± 0.25 h
- Tmax (iv, mean ± SD, n = 3): 0.25 ± 0.04 h
- half-life (iv, mean ± SD, n = 3): 383 ± 170 min
- AUC(0-t) (po, i.g., Beagle 4): 6860 ng·h/mL
- Cmax (po, i.g., Beagle 4): 3500 ng/mL
- MRT (po, i.g., Beagle 4): 10.8 h
- Tmax (po, i.g., Beagle 4): 2 h
- half-life (po, i.g., Beagle 4): 737 min
- bioavailability (po, i.g., Beagle 4, read-out: F, absolute bioavailability): 12.2%
- AUC(0-t) (po, i.g., Beagle 5): 13600 ng·h/mL
- Cmax (po, i.g., Beagle 5): 860 ng/mL
- MRT (po, i.g., Beagle 5): 10.6 h
- Tmax (po, i.g., Beagle 5): 1.73 h
- half-life (po, i.g., Beagle 5): 1040 min
- bioavailability (po, i.g., Beagle 5, read-out: F, absolute bioavailability): 39.6%
- AUC(0-t) (po, i.g., Beagle 6): 7160 ng·h/mL
- Cmax (po, i.g., Beagle 6): 2060 ng/mL
- MRT (po, i.g., Beagle 6): 11.2 h
- Tmax (po, i.g., Beagle 6): 2 h
- half-life (po, i.g., Beagle 6): 895 min
- bioavailability (po, i.g., Beagle 6, read-out: F, absolute bioavailability): 28.5%
- AUC(0-t) (po, i.g., mean ± SD, n = 3): 9210 ± 3820 ng·h/mL
- Cmax (po, i.g., mean ± SD, n = 3): 2140 ± 1320 ng/mL
- MRT (po, i.g., mean ± SD, n = 3): 10.8 ± 0.31 h
- Tmax (po, i.g., mean ± SD, n = 3): 1.91 ± 0.15 h
- half-life (po, i.g., mean ± SD, n = 3): 891 ± 152 min
- bioavailability (po, i.g., mean ± SD, n = 3, read-out: F, absolute bioavailability): 26.8 ± 13.8%
